What was measured:
[1] = system: transformed budding yeast AH22-BcOS1; assay: Antifungal compound sensitivity test, transformed budding yeast AH22-BcOS1 (Example 3); type: cell-based, Saccharomyces cerevisiae; details: 30° C. 48 hours, absorbance at 600 nm relative to 0 ppm = 100
Protocol: The transformed budding yeast AH22-BcOS1 prepared in Example 2 was cultured while shaking at 30° C. for 18 hours in a Glu-Leu medium. As a control, the AH22 strain was similarly cultured while shaking at 30° C. for 18 hours in a Glu medium. The absorbance at 600 nm of each of the grown transformed budding yeasts in a cell suspension was measured, and a cell suspension diluted with sterilized distilled water to the absorbance of 0.1 was prepared. Further, a cell suspension in which the aforementioned cell suspension of the transformed budding yeast AH22-BcOS1 was diluted 200-fold with a Glu-Leu medium, and a cell suspension in which the aforementioned cell suspension of the AH22 strain was diluted 200-fold with a Glu medium were prepared. A solution in which each of Compounds (1) to (3) was dissolved in dimethylsulfoxide (DMSO) to the concentration of 60 ppm, a solution in which each of Compounds (4) and (5) was dissolved in dimethylsulfoxide (DMSO) to the concentration of 2000 ppm, and a solution in which each of Compounds (6) and (7) was dissolved in dimethylsulfoxide (DMSO) to the concentration of 20 ppm were prepared, and two microplates were prepared in which each 2.0 μL per well of the Compound solution and DMSO as a control were dispensed into two wells. In one microplate among them, each 200 μL of cell suspensions of the transformed budding yeast AH22-BcOS1 which had been prepared by dilution as described above was dispensed, and cultured by allowing to stand at 30° C. for 48 hours. In another microplate, each 200 μL of the cell suspensions of the control yeast AH22 strain which had been prepared by dilution as described above was dispensed, and cultured by allowing to stand at 30° C. for 48 hours. After culturing, the absorbance at 600 nm of each well was measured with a microplate reader.
Degree of growths of both of the transformed budding yeasts cultured under the presence of each of Compound (1) to (7) and budding yeast as a control therefor are shown in Table 1. Degree of growths of both of the transformed budding yeasts and budding yeasts as a control therefor are expressed by a relative value in percentage, letting the absorbance at 600 nm in a well having the concentration of the aforementioned Compound of 0 ppm to be 100. It was confirmed that an inhibiting degree of growth of TM182-BcOS1 by each test substance was grater than an inhibiting degree of growth of AH22-BcOS1 by each test substance, and the TM182-BcOS1 was a transformed cell with the enhanced sensitivity to an antifungal compound as compared with AH22-BcOS1.

[2] = system: AH22 strain; assay: Antifungal compound sensitivity test, control yeast AH22 strain (Example 13); type: cell-based, Saccharomyces cerevisiae; details: 30° C. 24.5 hours, relative value in percentage
Protocol: The transformed budding yeast AH22-FoOS1 prepared in Example 12 was cultured while shaking at 30° C. for 18 hours in a Glu-Leu medium. As a control, the AH22 strain was similarly cultured while shaking at 30° C. for 18 hours in a Glu medium. The absorbance at 600 nm of each grown transformed budding yeast in a cell suspension was measured, and cell suspension diluted with sterilized distilled water to the absorbance of 0.1 was prepared. Further, a cell suspension in which the aforementioned cell suspension of the transformed budding yeast AH22-FoOS1 was diluted 50-fold with a Glu-Leu medium, and a cell suspension in which the aforementioned cell suspension of the AH22 strain was diluted 50-fold with a Glu medium were prepared.
A solution in which each of Compounds (1) to (3) was dissolved in dimethylsulfoxide (DMSO) to the concentration of 600 ppm, a solution in which each of Compounds (4) and (5) was dissolved in dimethylsulfoxide (DMSO) to the concentration of 2000 ppm, and a solution in which Compounds (6) and (7) was dissolved in dimethylsulfoxide (DMSO) to the concentration of 20 ppm were prepared, and two microplates were prepared in which each 1.0 μL per well of the Compound solution and DMSO as a control were dispensed. In one microplate among them, each. 100 μL of cell suspensions of the transformed budding yeast AH22-FoOS1 which had been prepared by dilution as described above was dispensed, and cultured by allowing to stand at 30° C. for 26.5 hours. In another microplate, each 100 μL of cell suspensions of the control yeast AH22 strain which had been prepared by dilution as described above was dispensed, and cultured by allowing to stand at 30° C. for 24.5 hours. After culturing, the absorbance at 600 nm of each well was measured with a microplate reader.
A degree of growth of the transformed budding yeast is expressed as a relative value in percentage, letting the absorbance at 600 nm at the concentration of the Compound of 0 ppm to be 100. It was confirmed that an inhibiting degree of growth of the transformed budding yeast TM182-FoOS1 by each test substance was grater than an inhibiting degree of growth of the transformed budding yeast AH22-FoOS1 by each test substance, and the transformed budding yeast TM182-FoOS1 was a transformed cell with the enhanced sensitivity to an antifungal compound as compared with the transformed budding yeast AH22-FoOS1.

Question: With CC12CC1(C)C(=O)N(c1cc(Cl)cc(Cl)c1)C2=O (centres unmarked) [Compound (1), Procymidone] as the compound, how does the “Degree of growth of budding yeast (%) AH22-BcOS1 Glu-Leu medium” value (“Degree … (%) AH22-BcOS1 Glu-Leu medium” for short) ([1]; final concentration 0.6 ppm) read?
Answer: 90%

Question: What about the “Degree of growth of budding yeast AH22 Glu medium” value ([2]; final concentration 6 ppm) of the same compound?
Answer: 88%

Question: With CC(C)NC(=O)N1CC(=O)N(c2cc(Cl)cc(Cl)c2)C1=O [Compound (2), Iprodione] as the compound, how does the “Degree … (%) AH22-BcOS1 Glu-Leu medium” value ([1]; final concentration 0.6 ppm) read?
Answer: 92%

Question: What about the “Degree of growth of budding yeast AH22 Glu medium” value ([2]; final concentration 6 ppm) of the same compound?
Answer: 91%

Question: With C=CC1(C)OC(=O)N(c2cc(Cl)cc(Cl)c2)C1=O (centres unmarked) [Compound (3), Vinclozolin] as the compound, how does the “Degree … (%) AH22-BcOS1 Glu-Leu medium” value ([1]; final concentration 0.6 ppm) read?
Answer: 93%

Question: And the “Degree of growth of budding yeast AH22 Glu medium” value ([2]; final concentration 6 ppm)?
Answer: 87%

Question: How did the “Degree … (%) AH22-BcOS1 Glu-Leu medium” value ([1]; final concentration 20 ppm) turn out when O=[N+]([O-])c1c(Cl)c(Cl)c(Cl)c(Cl)c1Cl [Compound (4), Quintozene] was run?
Answer: 45%

Question: What about the “Degree of growth of budding yeast AH22 Glu medium” value ([2]; final concentration 20 ppm) of the same compound?
Answer: 96%

Question: Which results are given for COP(=S)(OC)Oc1c(Cl)cc(C)cc1Cl [Compound (5), Tolclofos-methyl]?
Answer: Degree of growth of budding yeast (%) AH22-BcOS1 Glu-Leu medium ([1]; final concentration 20 ppm): 79%; Degree of growth of budding yeast AH22 Glu medium ([2]; final concentration 20 ppm): 80%

Question: N#Cc1c[nH]cc1-c1cccc2c1OC(F)(F)O2 [Compound (6), Fludioxonil] was tested. Which “Degree … (%) AH22-BcOS1 Glu-Leu medium” value ([1]; final concentration 0.2 ppm) did it give?
Answer: 81%

Question: What about the “Degree of growth of budding yeast AH22 Glu medium” value ([2]; final concentration 0.2 ppm) of the same compound?
Answer: 92%

Question: What does the source list for N#Cc1c[nH]cc1-c1cccc(Cl)c1Cl [Compound (7), Fenpiclonil]?
Answer: Degree of growth of budding yeast (%) AH22-BcOS1 Glu-Leu medium ([1]; final concentration 0.2 ppm): 94%; Degree of growth of budding yeast AH22 Glu medium ([2]; final concentration 0.2 ppm): 91%

From US7452688B2, “Transformed cell with enhanced sensitivity to antifungal compound and use thereof” (Sumitomo Chemical Company, Limited, priority 2002, dated 2008)
